In patent publication US10239887B2, “Positive allosteric modulators of the muscarinic acetylcholine receptor M4” (Vanderbilt University, priority 2016, dated 2019):

Target: T1, human mAChR M4 (Homo sapiens, UniProt P08173)
T1 sequence (P08173 1-479): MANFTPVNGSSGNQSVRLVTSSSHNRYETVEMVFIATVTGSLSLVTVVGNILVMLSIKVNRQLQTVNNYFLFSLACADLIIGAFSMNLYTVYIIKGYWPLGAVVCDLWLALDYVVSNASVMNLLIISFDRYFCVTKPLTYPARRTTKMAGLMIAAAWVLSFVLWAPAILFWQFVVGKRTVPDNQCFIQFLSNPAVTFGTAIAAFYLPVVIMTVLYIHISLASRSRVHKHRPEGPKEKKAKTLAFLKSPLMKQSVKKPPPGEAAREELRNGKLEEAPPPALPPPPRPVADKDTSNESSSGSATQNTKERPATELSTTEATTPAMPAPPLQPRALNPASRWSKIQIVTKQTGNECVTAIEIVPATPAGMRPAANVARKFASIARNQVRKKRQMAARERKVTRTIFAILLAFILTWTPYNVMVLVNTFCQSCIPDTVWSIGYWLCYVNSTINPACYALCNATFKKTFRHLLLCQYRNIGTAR
Experiment: mAChR M4 cell-based functional assay (calcium flux), human M4
Settings: Table 10; for EC50: Human M4 EC50 (nM); for Emax: % ACh maximum at 30 μM

[1] = calcium flux, PAM activity with EC20 acetylcholine

Cc1nnc2sc3c(NC4CC5(C4)CN(c4ncc(F)cc4Cl)C5)ncnc3c2c1C [Compound 163, N-[2-(3-chloro-5-fluoro-2-pyridyl)-2-azaspiro [3.3]heptan-6-yl]-3,4-dimethyl-pyrimido [4′,5′:4,5]thieno[2,3-c] pyridazin-8-amine]
EC50 [1]: 1440 nM
Emax: 42.9%

Cc1nnc2sc3c(NC4CC5(C4)CN(c4ncc(Cl)cc4F)C5)ncnc3c2c1C [Compound 164, N-[2-(5-chloro-3-fluoro-2-pyridyl)-2-azaspiro [3.3]heptan-6-yl]-3,4-dimethyl-pyrimido [4′,5′:4,5]thieno[2,3-c] pyridazin-8-amine]
EC50 [1]: 3500 nM
Emax: 22.7%

Cc1cnc(N2CC3(CC(Nc4ncnc5c4sc4nnc(C)c(C)c45)C3)C2)nc1 [Compound 165, 3,4-dimethyl-N-[2-(5-methylpyrimidin-2-yl)-2-azaspiro[3.3]heptan-6-yl]pyrimido [4′,5′:4,5]thieno[2,3-c] pyridazin-8-amine]
EC50 [1]: 2410 nM
Emax: 31.6%

Cc1ncc(CN2CC3(CC(Nc4ncnc5c4sc4nnc(C)c(C)c45)C3)C2)cn1 [Compound 166, 3,4-dimethyl-N-[2-[(2-methylpyrimidin-5-yl)methyl]-2-azaspiro [3.3]heptan-6-yl]pyrimido [4′,5′:4,5]thieno[2,3-c] pyridazin-8-amine]
EC50 [1]: 1210 nM
Emax: 34.7%

Cc1nnc2sc3c(NC4CC5(C4)CN(C(=O)CC(F)(F)F)C5)ncnc3c2c1C [Compound 168, 1-[6-[(3,4-dimethylpyrimido [4′,5′:4,5]thieno[2,3-c]pyridazin-8-yl)amino]-2-azaspiro[3.3]heptan-2-yl]-3,3,3-trifluoro-propan-1-one]
EC50 [1]: 3970 nM
Emax: 29%

Cc1nnc2sc3c(NC4CC5(C4)CN(C(=O)C4CCOCC4)C5)ncnc3c2c1C [Compound 169, [6-[(3,4-dimethylpyrimido[4′,5′:4,5]thieno[2,3-c]pyridazin-8-yl)amino]-2-azaspiro[3.3]heptan-2-yl]-tetrahydropyran-4-yl-methanone]
EC50 (unit μM (bounds)): > 10000 nM
Emax: 34.9%

CCCCCC(=O)N1CC2(CC(Nc3ncnc4c3sc3nnc(C)c(C)c34)C2)C1 [Compound 170, 1-[6-[(3,4-dimethylpyrimido [4′,5′:4,5]thieno[2,3-c]pyridazin-8-yl)amino]-2-azaspiro[3.3]heptan-2-yl]hexan-1-one; 2,2,2-trifluoroacetate acid]
EC50 [1]: 1260 nM
Emax: 41%

Cc1nnc2sc3c(N4CCC(C(C)(C)O)C4)ncnc3c2c1C (centres unmarked) [Compound 171, 2-[1-(3,4-dimethylpyrimido [4′,5′:4,5]thieno[2,3-c]pyridazin-8-yl)pyrrolidin-3-yl]propan-2-ol]
EC50 [1]: 172 nM
Emax: 30.9%

Cc1nnc2sc3c(NC4CC5(C4)CN(C(=O)c4ccc(C(F)(F)F)cc4)C5)ncnc3c2c1C [Compound 172, [6-[(3,4-dimethylpyrimido [4′,5′:4,5]thieno[2,3-c]pyridazin-8-yl)amino]-2-azaspiro[3.3]heptan-2-yl]-[4-(trifluoromethyl)phenyl]methanone]
EC50 [1]: 2950 nM
Emax: 39.5%

Cc1nnc2sc3c(N4CCC(C(=O)Nc5ccc(C(F)(F)F)cc5)C4)ncnc3c2c1C (centres unmarked) [Compound 173, 1-(3,4-dimethylpyrimido [4′,5′:4,5]thieno[2,3-c]pyridazin-8-yl)-N-[4-(trifluoromethyl)phenyl] pyrrolidine-3-carboxamide]
EC50 [1]: 3310 nM
Emax: 24.4%

Cc1nnc2sc3c(N4CCC(C(=O)Nc5ccccn5)C4)ncnc3c2c1C (centres unmarked) [Compound 174, 1-(3,4-dimethylpyrimido [4′,5′:4,5]thieno[2,3-c]pyridazin-8-yl)-N-(2-pyridyl)pyrrolidine-3-carboxamide]
EC50 [1]: 748 nM
Emax: 31%

Cc1nnc2sc3c(NCc4ccc(F)c(C(C)(C)O)c4)ncnc3c2c1C [Compound 175, 2-[5-[[(3,4-dimethylpyrimido [4′,5′:4,5]thieno[2,3-c]pyridazin-8-yl)amino]methyl]-2-fluoro-phenyl]propan-2-ol]
EC50 [1]: 722 nM
Emax: 52.5%

Cc1nnc2sc3c(NCc4ccc(F)c(C(=O)NC5CC5)c4)ncnc3c2c1C [Compound 176, N-cyclopropyl-5-[[(3,4-dimethylpyrimido [4′,5′:4,5]thieno[2,3-c]pyridazin-8-yl)amino]methyl]-2-fluoro-benzamide]
EC50 [1]: 511 nM
Emax: 105%

Cc1nnc2sc3c(NCc4ccc(F)c(C(=O)NC5CCC5)c4)ncnc3c2c1C [Compound 177, N-cyclobutyl-5-[[(3,4-dimethylpyrimido [4′,5′:4,5]thieno[2,3-c]pyridazin-8-yl)amino]methyl]-2-fluoro-benzamide]
EC50 [1]: 570 nM
Emax: 98.5%

Cc1nnc2sc3c(NCc4ccc(F)c(C(=O)NC5CCCC5)c4)ncnc3c2c1C [Compound 178, N-cyclopentyl-5-[[(3,4-dimethylpyrimido [4′,5′:4,5]thieno[2,3-c]pyridazin-8-yl)amino]methyl]-2-fluoro-benzamide]
EC50 [1]: 1030 nM
Emax: 97.1%

Cc1nnc2sc3c(NCc4ccc(F)c(C(=O)NC(C)C)c4)ncnc3c2c1C [Compound 179, 5-[[(3,4-dimethylpyrimido [4′,5′:4,5]thieno[2,3-c]pyridazin-8-yl)amino]methyl]-2-fluoro-N-isopropyl-benzamide]
EC50 [1]: 748 nM
Emax: 95.2%

Cc1nnc2sc3c(NCc4ccc(F)c(C(=O)NCC(C)C)c4)ncnc3c2c1C [Compound 180, 5-[[(3,4-dimethylpyrimido [4′,5′:4,5]thieno[2,3-c]pyridazin-8-yl)amino]methyl]-2-fluoro-N-isobutyl-benzamide]
EC50 [1]: 1210 nM
Emax: 97.6%

Cc1nnc2sc3c(NCc4ccc(F)c(C(=O)NC5CC5(C)C)c4)ncnc3c2c1C (centres unmarked) [Compound 181, N-(2,2-dimethylcyclopropyl)-5-[[(3,4-dimethylpyrimido [4′,5′:4,5]thieno[2,3-c]pyridazin-8-yl)amino]methyl]-2-fluoro-benzamide]
EC50 [1]: 1160 nM
Emax: 96.5%

Cc1nnc2sc3c(NCc4ccc(F)c(C(=O)N[C@H](C)C(F)(F)F)c4)ncnc3c2c1C [Compound 182, 5-[[(3,4-dimethylpyrimido [4′,5′:4,5]thieno[2,3-c]pyridazin-8-yl)amino]methyl]-2-fluoro-N-[(1R)-2,2,2-trifluoro-1-methyl-ethyl]benzamide]
EC50 [1]: 1170 nM
Emax: 97.2%

Cc1nnc2sc3c(NCc4ccc(F)c(C(=O)NC5CC(F)C5)c4)ncnc3c2c1C (centres unmarked) [Compound 183, 5-[[(3,4-dimethylpyrimido [4′,5′:4,5]thieno[2,3-c]pyridazin-8-yl)amino]methyl]-2-fluoro-N-(3-fluorocyclobutyl) benzamide]
EC50 [1]: 505 nM
Emax: 99.7%

Cc1nnc2sc3c(NCc4ccc(F)c(C(=O)NC5CC(F)(F)C5)c4)ncnc3c2c1C [Compound 184, N-(3,3-difluorocyclobutyl)-5-[[(3,4-dimethylpyrimido [4′,5′:4,5]thieno[2,3-c]pyridazin-8-yl)amino]methyl]-2-fluoro-benzamide]
EC50 [1]: 340 nM
Emax: 107%

Cc1nnc2sc3c(NCc4ccc(F)c(C(=O)NC(C)C(C)(C)CO)c4)ncnc3c2c1C (centres unmarked) [Compound 185, 5-[[(3,4-dimethylpyrimido [4′,5′:4,5]thieno[2,3-c]pyridazin-8-yl)amino]methyl]-2-fluoro-N-(3-hydroxy-1,2,2-trimethyl-propyl)benzamide]
EC50 [1]: 794 nM
Emax: 94.2%

COCCNC(=O)c1cc(CNc2ncnc3c2sc2nnc(C)c(C)c23)ccc1F [Compound 186, 5-[[(3,4-dimethylpyrimido [4′,5′:4,5]thieno[2,3-c]pyridazin-8-yl)amino]methyl]-2-fluoro-N-(2-methoxyethyl)benzamide]
EC50 [1]: 687 nM
Emax: 86.8%

CNC(=O)c1cc(CNc2ncnc3c2sc2nnc(C)c(C)c23)ccc1F [Compound 187, 5-[[(3,4-dimethylpyrimido [4′,5′:4,5]thieno[2,3-c]pyridazin-8-yl)amino]methyl]-2-fluoro-N-methyl-benzamide]
EC50 [1]: 154 nM
Emax: 87.6%

Cc1nnc2sc3c(NCc4ccc(C(C)(C)O)c(Cl)c4)ncnc3c2c1C [Compound 188, 2-[2-chloro-4-[[(3,4-dimethylpyrimido [4′,5′:4,5]thieno[2,3-c]pyridazin-8-yl)amino]methyl]phenyl]propan-2-ol]
EC50 [1]: 775 nM
Emax: 79.8%

Cc1nnc2sc3c(NCc4ccc(C(C)(C)O)cc4Cl)ncnc3c2c1C [Compound 189, 2-[3-chloro-4-[[(3,4-dimethylpyrimido [4′,5′:4,5]thieno[2,3-c]pyridazin-8-yl)amino]methyl]phenyl]propan-2-ol]
EC50 [1]: 831 nM
Emax: 94.3%

Cc1nnc2sc3c(NCc4ccc(-c5cccs5)cc4)ncnc3c2c1C [Compound 190, 3,4-dimethyl-N-[[4-(2-thienyl)phenyl]methyl] pyrimido[4′,5′:4,5]thieno [2,3-c]pyridazin-8-amine]
EC50 [1]: 3210 nM
Emax: 90.8%

Cc1nnc2sc3c(NCc4ccc(-c5ccc[nH]5)cc4)ncnc3c2c1C [Compound 191, 3,4-dimethyl-N-[[4-(1H-pyrrol-2-yl)phenyl]methyl]pyrimido[4′,5′:4,5] thieno[2,3-c]pyridazin-8-amine]
EC50 [1]: 837 nM
Emax: 56.9%
